Values of other authors in patent publication EP0268926A2, “Safened sorptive granular pesticidal resin compositions for controlling soil borne pests and process for the preparation thereof” (priority 1986, dated 1988).

Test system: rats
Details: technical pesticide

## CCOP(=S)(OCC)SCSCC [phorate, O,O-diethyl-S-(ethylthiomethyl)phosphorodithioate]
  acute oral LD50 value in rats: 1.6-3.7 mg technical/kg
